Reference: paper PMC9124818 (Pharmacology Research & Perspectives, 2022)

How the values were obtained:
[1] = target: CYP2D6 (Homo sapiens, UniProt P10635); details: CYP2D6‐dependent dextromethorphan O‐demethylation; ref 35 von Moltke et al.; cited from earlier work
[2] = target: T1, CYP1A2 (Homo sapiens, UniProt P05177); details: ref 35 von Moltke et al.; cited from earlier work
T1 sequence (P05177 1-516): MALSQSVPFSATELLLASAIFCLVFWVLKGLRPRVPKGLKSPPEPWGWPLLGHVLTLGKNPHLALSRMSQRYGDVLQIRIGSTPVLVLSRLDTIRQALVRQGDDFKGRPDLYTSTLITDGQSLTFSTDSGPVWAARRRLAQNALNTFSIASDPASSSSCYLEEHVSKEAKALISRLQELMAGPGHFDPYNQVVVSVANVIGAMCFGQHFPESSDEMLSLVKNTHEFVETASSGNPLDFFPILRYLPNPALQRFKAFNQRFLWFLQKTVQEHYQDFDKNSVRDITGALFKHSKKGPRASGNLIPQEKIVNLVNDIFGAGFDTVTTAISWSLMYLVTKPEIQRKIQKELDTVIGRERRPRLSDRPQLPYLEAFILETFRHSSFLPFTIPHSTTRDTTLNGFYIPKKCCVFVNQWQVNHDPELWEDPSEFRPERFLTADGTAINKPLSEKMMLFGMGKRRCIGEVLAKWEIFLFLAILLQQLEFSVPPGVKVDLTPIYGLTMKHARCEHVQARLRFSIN

[3] = target: CYP2C9 (Homo sapiens, UniProt P11712); details: ref 35 von Moltke et al.; cited from earlier work
[4] = test system: CYP3A; details: ref 35 von Moltke et al.; cited from earlier work
[5] = test system: CYP1A2 mRNA; test: CYP450 induction in cultured human hepatocytes, mRNA by qRT-PCR; type: cell-based; details: human, hepatocytes, 3 days, 50 μM
Procedure: Each PCR was performed in triplicate.

Sequence of CYP2D6 (P10635 whole entry): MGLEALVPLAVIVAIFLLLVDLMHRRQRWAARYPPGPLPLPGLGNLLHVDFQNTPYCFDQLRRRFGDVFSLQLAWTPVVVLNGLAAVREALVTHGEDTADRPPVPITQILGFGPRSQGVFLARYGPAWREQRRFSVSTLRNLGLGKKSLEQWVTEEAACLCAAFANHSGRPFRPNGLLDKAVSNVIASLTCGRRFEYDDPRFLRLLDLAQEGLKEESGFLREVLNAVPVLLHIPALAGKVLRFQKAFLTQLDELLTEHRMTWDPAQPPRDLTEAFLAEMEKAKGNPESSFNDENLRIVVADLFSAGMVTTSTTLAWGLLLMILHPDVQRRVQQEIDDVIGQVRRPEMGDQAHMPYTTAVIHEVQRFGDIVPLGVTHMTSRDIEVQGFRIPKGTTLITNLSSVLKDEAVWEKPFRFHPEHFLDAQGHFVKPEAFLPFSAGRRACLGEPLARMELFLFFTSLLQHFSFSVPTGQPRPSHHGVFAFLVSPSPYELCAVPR
Sequence of CYP2C9 (P11712 whole entry): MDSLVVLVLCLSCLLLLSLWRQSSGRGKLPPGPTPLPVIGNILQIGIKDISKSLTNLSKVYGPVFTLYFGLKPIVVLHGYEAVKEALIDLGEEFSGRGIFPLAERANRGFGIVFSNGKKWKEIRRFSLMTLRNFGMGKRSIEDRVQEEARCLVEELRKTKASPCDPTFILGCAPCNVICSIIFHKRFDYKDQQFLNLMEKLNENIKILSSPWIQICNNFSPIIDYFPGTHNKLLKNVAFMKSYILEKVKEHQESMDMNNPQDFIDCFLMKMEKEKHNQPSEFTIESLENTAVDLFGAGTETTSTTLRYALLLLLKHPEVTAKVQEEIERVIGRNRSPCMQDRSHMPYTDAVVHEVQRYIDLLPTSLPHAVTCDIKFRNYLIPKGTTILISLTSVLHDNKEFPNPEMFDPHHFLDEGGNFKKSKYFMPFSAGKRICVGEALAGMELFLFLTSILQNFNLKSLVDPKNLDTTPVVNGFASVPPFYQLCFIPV

In the case of `CCN[C@@H](C)Cc1cccc(C(F)(F)F)c1` [D‐FFA], the IC50 [1] is listed as 15.1 µM, the inhibitor potential [2] is listed as “weak or negligible inhibitor potential” and the inhibitor potential [3] is listed as “weak or negligible inhibitor potential”. For the same compound, the inhibitor potential [4] was “weak or negligible inhibitor potential”.
In the case of `CCN[C@H](C)Cc1cccc(C(F)(F)F)c1` [L‐FFA], the IC50 [1] is given as 15.1 µM, the inhibitor potential [2] is given as “weak or negligible inhibitor potential” and the inhibitor potential [3] is given as “weak or negligible inhibitor potential”. For the same compound, the inhibitor potential [4] was “weak or negligible inhibitor potential”.
For `COc1ccc2[nH]c([S+]([O-])Cc3ncc(C)c(OC)c3C)nc2c1` (stereo not drawn) [Omeprazole, omeprazole, reference compound], the “increase in CYP1A2 mRNA levels” value [5] was 32.7-52.5 fold.
